Tested on: Methicillin-resistente Staphylokokken
Assay: Minimal inhibitory concentration in the agar dilution test, 39 clinical isolates
Assay type: cell-based
Protocol: Der überraschend gefundene synergistische Effekt einer Kombination von Decaplanin und Cefpirom konnte auch mit 39 klinischen Isolaten (Methicillin-resistente Staphylokokken) gezeigt werden, von denen die meisten eine ausgeprägte Resistenz gegenüber Cefpirom zeigten (MHK > 16 µg/ml). Dazu wurde die minimale Hemmkonzentration im Agarverdünnungstest von Cefpirom, Decaplanin und einer Mischung gleicher Anteile von Cefpirom und Decaplanin bestimmt. Wie Fig. 1 zeigt, ist die antibakterielle Aktivität der Mischung deutlich höher als die jeder Einzelkomponente. Aus Fig. 1 geht hervor, daß die als Beurteilungskriterium üblicherweise herangezogene minimale Hemmkonzentration, bei der 90 % der Stämme gehemmt werden (MHK90%), für die Mischung beider Komponenten mit 0,7 µg/ml am niedrigsten ist. (MHK90% für Decaplanin: 3,5 µg/ml, MHK90% für Cefpirom: 64 µg/ml).

Row | Compound | MIC (read-out: MHK) | MIC90 (read-out: MHK90%) | MHK90% (minimal inhibitory concentration at which 90 % of the 39 isolates are inhibited, from Fig. 1)
1 | CO/N=C(\C(=O)N[C@@H]1C(=O)N2C(C(=O)[O-])=C(C[n+]3cccc4c3CCC4)CS[C@H]12)c1csc(N)n1 [Cefpirom] | > 16 µg/mL | 64 µg/mL | –
2 | CNC(CC(C)C)C(=O)NC1C(=O)NC(CC(N)=O)C(=O)NC2C(=O)NC3C(=O)NC(C(=O)NC(C(=O)O)c4cc(O)cc(O)c4-c4cc3ccc4O)C(OC3CC(C)(N)C(O)C(C)O3)c3ccc(cc3)Oc3cc2cc(c3OC2OC(CO)C(O)C(O)C2OC2OC(C)C(O)C(O)C2O)Oc2ccc(cc2Cl)C1O (stereo not drawn) [Decaplanin] | – | – | 3,5 µg/ml

Reference: patent EP0388510A1, “Pharmaceutical compositions and their use in the prophylaxis or the treatment of bacterial infectious diseases” (HOECHST AKTIENGESELLSCHAFT, priority 1989, dated 1990)
